Measured values reported in PubChem BioAssay (NCI).
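Exposure lasted 48 hours, with cells grown in 96-well plates and compounds tested at five concentrations. TGI denotes the concentration required for complete inhibition of growth.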

Legend:
Test in all cases: NCI tumour cell line growth inhibition, 48 h
786-0 renal = system: 786-0 renal
A498 renal = system: A498 renal
A549 NSCLC = system: A549 NSCLC
ACHN renal = system: ACHN renal
BT-549 breast = system: BT-549 breast
CAKI-1 renal = system: CAKI-1 renal
CCRF-CEM leukemia = system: CCRF-CEM leukemia
COLO 205 colon = system: COLO 205 colon
DU-145 prostate = system: DU-145 prostate
EKVX NSCLC = system: EKVX NSCLC
HCC-2998 colon = system: HCC-2998 colon
HCT-116 colon = system: HCT-116 colon
HCT-15 colon = system: HCT-15 colon
HL-60(TB) leukemia = system: HL-60(TB) leukemia
HOP-62 NSCLC = system: HOP-62 NSCLC
HOP-92 NSCLC = system: HOP-92 NSCLC
HS 578T breast = system: HS 578T breast
HT29 colon = system: HT29 colon
IGROV1 ovarian = system: IGROV1 ovarian
K-562 leukemia = system: K-562 leukemia
KM12 colon = system: KM12 colon
LOX IMVI melanoma = system: LOX IMVI melanoma
M14 melanoma = system: M14 melanoma
MALME-3M melanoma = system: MALME-3M melanoma
MCF7 breast = system: MCF7 breast
MDA-MB-231 breast = system: MDA-MB-231 breast
MDA-MB-435 = system: MDA-MB-435
MDA-N = system: MDA-N
MOLT-4 leukemia = system: MOLT-4 leukemia
NCI-H226 lung = system: NCI-H226 lung
NCI-H23 lung = system: NCI-H23 lung
NCI-H460 lung = system: NCI-H460 lung
NCI-H522 lung = system: NCI-H522 lung
NCI/ADR-RES ovarian = system: NCI/ADR-RES ovarian
OVCAR-3 ovarian = system: OVCAR-3 ovarian
OVCAR-4 ovarian = system: OVCAR-4 ovarian
OVCAR-5 ovarian = system: OVCAR-5 ovarian
OVCAR-8 ovarian = system: OVCAR-8 ovarian
PC-3 prostate = system: PC-3 prostate
SF-268 CNS = system: SF-268 CNS
SF-295 CNS = system: SF-295 CNS
SF-539 CNS = system: SF-539 CNS
SK-MEL-2 melanoma = system: SK-MEL-2 melanoma
SK-MEL-5 melanoma = system: SK-MEL-5 melanoma
SK-OV-3 ovarian = system: SK-OV-3 ovarian
SN12C renal = system: SN12C renal
SNB-19 CNS = system: SNB-19 CNS
SNB-75 CNS = system: SNB-75 CNS
SR leukemia = system: SR leukemia
SW-620 colon = system: SW-620 colon
T-47D breast = system: T-47D breast
TK-10 renal = system: TK-10 renal
U251 CNS = system: U251 CNS
UACC-257 melanoma = system: UACC-257 melanoma
UACC-62 melanoma = system: UACC-62 melanoma
UO-31 renal = system: UO-31 renal
RPMI-8226 leukemia = system: RPMI-8226 leukemia
SK-MEL-28 melanoma = system: SK-MEL-28 melanoma
RXF 393 renal = system: RXF 393 renal

C[N+](C)(CCNc1ccc(NCC[N+](C)(C)Cc2ccc([N+](=O)[O-])cc2)c2c1C(=O)c1ccccc1C2=O)Cc1ccc([N+](=O)[O-])cc1
TGI (786-0 renal): > 100 µM
TGI (A498 renal): > 100 µM
TGI (A549 NSCLC): > 100 µM
TGI (ACHN renal): > 100 µM
TGI (BT-549 breast): > 100 µM
TGI (CAKI-1 renal): > 100 µM
TGI (CCRF-CEM leukemia): > 100 µM
TGI (COLO 205 colon): > 100 µM
TGI (DU-145 prostate): > 100 µM
TGI (EKVX NSCLC): > 100 µM
TGI (HCC-2998 colon): > 100 µM
TGI (HCT-116 colon): > 100 µM
TGI (HCT-15 colon): > 100 µM
TGI (HL-60(TB) leukemia): > 100 µM
TGI (HOP-62 NSCLC): > 100 µM
TGI (HOP-92 NSCLC): > 100 µM
TGI (HS 578T breast): > 100 µM
TGI (HT29 colon): > 100 µM
TGI (IGROV1 ovarian): > 100 µM
TGI (K-562 leukemia): > 100 µM
TGI (KM12 colon): > 100 µM
TGI (LOX IMVI melanoma): > 100 µM
TGI (M14 melanoma): > 100 µM
TGI (MALME-3M melanoma): > 100 µM
TGI (MCF7 breast): > 100 µM
TGI (MDA-MB-231 breast): > 100 µM
TGI (MDA-MB-435): > 100 µM
TGI (MDA-N): > 100 µM
TGI (MOLT-4 leukemia): > 100 µM
TGI (NCI-H226 lung): > 100 µM
TGI (NCI-H23 lung): > 100 µM
TGI (NCI-H460 lung): > 100 µM
TGI (NCI-H522 lung): > 100 µM
TGI (NCI/ADR-RES ovarian): > 100 µM
TGI (OVCAR-3 ovarian): > 100 µM
TGI (OVCAR-4 ovarian): > 100 µM
TGI (OVCAR-5 ovarian): > 100 µM
TGI (OVCAR-8 ovarian): > 100 µM
TGI (PC-3 prostate): > 100 µM
TGI (SF-268 CNS): > 100 µM
TGI (SF-295 CNS): > 100 µM
TGI (SF-539 CNS): > 100 µM
TGI (SK-MEL-2 melanoma): > 100 µM
TGI (SK-MEL-5 melanoma): > 100 µM
TGI (SK-OV-3 ovarian): > 100 µM
TGI (SN12C renal): > 100 µM
TGI (SNB-19 CNS): > 100 µM
TGI (SNB-75 CNS): > 100 µM
TGI (SR leukemia): > 100 µM
TGI (SW-620 colon): > 100 µM
TGI (T-47D breast): > 100 µM
TGI (TK-10 renal): > 100 µM
TGI (U251 CNS): > 100 µM
TGI (UACC-257 melanoma): > 100 µM
TGI (UACC-62 melanoma): > 100 µM
TGI (UO-31 renal): > 100 µM

CC(CCOc1ccc2ccc(=O)oc2c1)C1=CC(=O)C(C)(C)O1 (stereo not given)
TGI (786-0 renal): 7.69 µM
TGI (A498 renal): 5.52 µM
TGI (A549 NSCLC): 10.6 µM
TGI (ACHN renal): 12.4 µM
TGI (BT-549 breast): 11 µM
TGI (CAKI-1 renal): 8.75 µM
TGI (CCRF-CEM leukemia): 3.18 µM
TGI (COLO 205 colon): 5.97 µM
TGI (DU-145 prostate): 12.5 µM
TGI (EKVX NSCLC): 15.1 µM
TGI (HCC-2998 colon): 5.71 µM
TGI (HCT-116 colon): 10 µM
TGI (HCT-15 colon): 5.68 µM
TGI (HL-60(TB) leukemia): 5.31 µM
TGI (HOP-62 NSCLC): 21.3 µM
TGI (HOP-92 NSCLC): 13.2 µM
TGI (HS 578T breast): 6.84 µM
TGI (HT29 colon): 10.4 µM
TGI (IGROV1 ovarian): 14.8 µM
TGI (KM12 colon): 7.41 µM
TGI (LOX IMVI melanoma): > 100 µM
TGI (M14 melanoma): 26.5 µM
TGI (MALME-3M melanoma): 10.8 µM
TGI (MCF7 breast): 14.7 µM
TGI (MDA-MB-231 breast): 12.5 µM
TGI (MDA-MB-435): 11.5 µM
TGI (MDA-N): 16.4 µM
TGI (MOLT-4 leukemia): 6.37 µM
TGI (NCI-H226 lung): 22.5 µM
TGI (NCI-H23 lung): 11.9 µM
TGI (NCI-H460 lung): 3.94 µM
TGI (NCI-H522 lung): 3.11 µM
TGI (NCI/ADR-RES ovarian): 5.62 µM
TGI (OVCAR-3 ovarian): 11.6 µM
TGI (OVCAR-4 ovarian): 22.5 µM
TGI (OVCAR-5 ovarian): 49.9 µM
TGI (OVCAR-8 ovarian): 4.45 µM
TGI (PC-3 prostate): 23.5 µM
TGI (RPMI-8226 leukemia): 7.31 µM
TGI (SF-268 CNS): 5.28 µM
TGI (SF-295 CNS): 14.3 µM
TGI (SF-539 CNS): 4.37 µM
TGI (SK-MEL-2 melanoma): 26.3 µM
TGI (SK-MEL-28 melanoma): 12.2 µM
TGI (SK-MEL-5 melanoma): 24 µM
TGI (SK-OV-3 ovarian): 14.2 µM
TGI (SN12C renal): 4.09 µM
TGI (SNB-19 CNS): 18.2 µM
TGI (SR leukemia): 3.42 µM
TGI (SW-620 colon): 4.93 µM
TGI (T-47D breast): 6.06 µM
TGI (TK-10 renal): 13.3 µM
TGI (U251 CNS): 10.3 µM
TGI (UACC-257 melanoma): 20.6 µM
TGI (UACC-62 melanoma): 14.9 µM
TGI (UO-31 renal): 12.1 µM

N#CC(C#N)=Cc1c[nH]c(=O)[nH]c1=O
TGI (786-0 renal): > 100 µM
TGI (A498 renal): > 100 µM
TGI (A549 NSCLC): > 100 µM
TGI (ACHN renal): > 100 µM
TGI (BT-549 breast): > 100 µM
TGI (CAKI-1 renal): > 100 µM
TGI (CCRF-CEM leukemia): 63.9 µM
TGI (COLO 205 colon): > 100 µM
TGI (DU-145 prostate): > 100 µM
TGI (EKVX NSCLC): > 100 µM
TGI (HCT-116 colon): > 100 µM
TGI (HCT-15 colon): > 100 µM
TGI (HL-60(TB) leukemia): > 100 µM
TGI (HOP-62 NSCLC): > 100 µM
TGI (HOP-92 NSCLC): > 100 µM
TGI (HS 578T breast): > 100 µM
TGI (HT29 colon): > 100 µM
TGI (IGROV1 ovarian): > 100 µM
TGI (K-562 leukemia): > 100 µM
TGI (KM12 colon): > 100 µM
TGI (LOX IMVI melanoma): > 100 µM
TGI (M14 melanoma): > 100 µM
TGI (MALME-3M melanoma): > 100 µM
TGI (MCF7 breast): > 100 µM
TGI (MDA-MB-231 breast): > 100 µM
TGI (MDA-MB-435): > 100 µM
TGI (MDA-N): > 100 µM
TGI (MOLT-4 leukemia): > 100 µM
TGI (NCI-H226 lung): > 100 µM
TGI (NCI-H23 lung): > 100 µM
TGI (NCI-H460 lung): > 100 µM
TGI (NCI-H522 lung): > 100 µM
TGI (NCI/ADR-RES ovarian): > 100 µM
TGI (OVCAR-3 ovarian): > 100 µM
TGI (OVCAR-4 ovarian): > 100 µM
TGI (OVCAR-5 ovarian): > 100 µM
TGI (OVCAR-8 ovarian): > 100 µM
TGI (PC-3 prostate): > 100 µM
TGI (RPMI-8226 leukemia): > 100 µM
TGI (RXF 393 renal): > 100 µM
TGI (SF-268 CNS): > 100 µM
TGI (SF-295 CNS): > 100 µM
TGI (SF-539 CNS): > 100 µM
TGI (SK-MEL-2 melanoma): > 100 µM
TGI (SK-MEL-28 melanoma): > 100 µM
TGI (SK-MEL-5 melanoma): > 100 µM
TGI (SK-OV-3 ovarian): > 100 µM
TGI (SN12C renal): > 100 µM
TGI (SNB-19 CNS): > 100 µM
TGI (SNB-75 CNS): > 100 µM
TGI (SR leukemia): > 100 µM
TGI (SW-620 colon): > 100 µM
TGI (T-47D breast): > 100 µM
TGI (TK-10 renal): > 100 µM
TGI (U251 CNS): > 100 µM
TGI (UACC-257 melanoma): > 100 µM
TGI (UACC-62 melanoma): > 100 µM
TGI (UO-31 renal): > 100 µM
